BindingDB's records for doi:10.1021/jm034141y (Merck Research Laboratories, 2003)

Assay: In vitro inhibition of purified Carboxypeptidase B (CPB) by ECL assay

IC50 [nM]	Compound
> 100000	O=C(O)C(Cc1ccccc1)c1cnc[nH]1 (configuration not stated) [2-(1H-Imidazol-4-yl)-3-phenyl-propionic acid]
21	Nc1ccc(CC(C(=O)O)c2cn(Cc3ccccc3)cn2)cn1 (configuration not stated) [3-(6-Amino-pyridin-3-yl)-2-(1-benzyl-1H-imidazol-4-yl)-propionic acid]
